Patent publication EP0378317A2, “Microbial transformation product of L-679,934” (Merck & Co., Inc., priority 1989, dated 1990)
“Also recorded” adds a separate entry of the source. Read-outs that look alike come from different tables or passages of the source.

Columns and labels:
[1] = system: mouse T lymphocytes; experiment: T-cell proliferation assay (ionomycin plus PMA induced T-cell stimulation, tritiated thymidine uptake); assay type: cell-based; conditions: for IC50: read-out: IC₅₀
Method: The principle of this assay is to measure the proliferation of mouse T lymphocytes stimulated with the combination of ionomycin plus PMA. A positive sample in this assay will inhibit T-cell proliferation, as indicated by reduced tritiated thymidine uptake. […] Cells were pelleted by centrifugation at 1500 rpm for 8 minutes. Contaminating red cells were removed by treating the pellet with ammonium chloride lysing buffer (GIBCO) for 2 minutes at 4°C. Cold medium was added and cells were again centrifuged at 1500 rpm for 8 minutes. T lymphocytes were then isolated by separation of the cell suspension on nylon wool columns as follows: Nylon wool columns were prepared by packing approximately 4 grams of washed and dried nylon wool into 20 ml plastic syringes. The columns were sterilized by autoclaving at 250°F for 30 minutes. Nylon wool columns were wetted with warm (37°C) culture medium and rinsed with the same medium. Washed spleen cells resuspended in warm medium were slowly applied to the nylon wool. The columns were then incubated in an upright position at 37°C for 1 hour. Non-adherent T lymphocytes were eluted from the columns with warm culture medium and the cell suspensions were spun as above. […] The cell suspension was immediately distributed into 96 well flat-bottom microculture plates (Costar) at 200 µl/well. […] The proliferation of T lymphocytes was assessed by measurement of tritiated thymidine incorporation. After 44 hours of culturing, the cells were pulse-labelled with 2 µCi/well of tritiated thymidine (NEN, Cambridge, MA). After another 4 hours of incubation, cultures were harvested on glass fiber filters using a multiple sample harvester. Radioactivity of filter discs corresponding to individual wells was measured by standard liquid scintillation counting methods (Betacounter). Mean counts per minute of replicate wells were calculated and the results expressed as percent inhibition of tritiated thymidine uptake (proliferation) as follows: [formula]

[2] = Physical characteristics of the fermentation product; assay type: physicochemical; conditions: methanol
From the text: White amorphous powder • 2. […] Molecular weight of 789, as determined by FAB mass spectroscopy and is consistent with the assigned molecular structure in Figure 1.

Compound	IC50 ([1]; Mus musculus, T-lymphocyte, inhibition of T-cell proliferation, this experiment, same value in molar terms) [nM]	IC50 ([1]; Mus musculus, T-lymphocyte, inhibition of T-cell proliferation, this experiment) [ng/mL]	IC50 ([1]; Mus musculus, T-lymphocyte, range generally found) [nM]	inhibition at 0.00058 µg/mL ([1]; Mus musculus, T-lymphocyte, L-683,519 0.58 ng/ml, harvest at 48 hours) [%]	inhibition at 0.00087 µg/mL ([1]; Mus musculus, T-lymphocyte, L-683,519 0.87 ng/ml, harvest at 48 hours) [%]	inhibition at 0.0013 µg/mL ([1]; Mus musculus, T-lymphocyte, L-683,519 1.3 ng/ml, harvest at 48 hours) [%]	inhibition at 0.0019 µg/mL ([1]; Mus musculus, T-lymphocyte, L-683,519 1.9 ng/ml, harvest at 48 hours) [%]	inhibition at 0.0029 µg/mL ([1]; Mus musculus, T-lymphocyte, L-683,519 2.9 ng/ml, harvest at 48 hours) [%]	inhibition at 0.0044 µg/mL ([1]; Mus musculus, T-lymphocyte, L-683,519 4.4 ng/ml, harvest at 48 hours) [%]	inhibition at 0.0066 µg/mL ([1]; Mus musculus, T-lymphocyte, L-683,519 6.6 ng/ml, harvest at 48 hours) [%]	inhibition at 0.0099 µg/mL ([1]; Mus musculus, T-lymphocyte, L-683,519 9.9 ng/ml, harvest at 48 hours) [%]	inhibition at 0.015 µg/mL ([1]; Mus musculus, T-lymphocyte, L-683,519 15.0 ng/ml, harvest at 48 hours) [%]	inhibition at 0.022 µg/mL ([1]; Mus musculus, T-lymphocyte, L-683,519 22.0 ng/ml, harvest at 48 hours) [%]	inhibition at 0.033 µg/mL ([1]; Mus musculus, T-lymphocyte, L-683,519 33.0 ng/ml, harvest at 48 hours) [%]	inhibition at 0.05 µg/mL ([1]; Mus musculus, T-lymphocyte, L-683,519 50.0 ng/ml, ionomycin 250 ng/ml + PMA 10 ng/ml, ³H-thymidine pulse 4 hours, harvest at 48 hours) [%]	Inhibition of proliferation after addition of IL-2 ([1]; addition of 50 units/ml. of recombinant human IL-2)	inhibition of T-cell activation (immunosuppressive activity) ([1]; result in words)	Solubility [2]	inhibition at 0.01 µg/mL ([1]; Mus musculus, T-lymphocyte, 48 h) [%]
C=CCC1C=C(C)CC(C)CC(OC)C(O)C2CC(C)C(O)(O2)C(=O)C(=O)N2CCCCC2C(=O)OC(C(C)=CC2CCC(O)C(OC)C2)C(C)C(O)CC1=O [L-683,519]	2.2	1.7	2 to 4	0	0	30	57	81	93	97	99	99	99	99	99	4. Inhibition of proliferation was reversed by the addition of 50 units/ml. of recombinant human IL-2.	positive inhibition of T-cell activation; also recorded: positive immunosuppressive activity	Solubility in methanol	–
C=CC[C@@H]1/C=C(\C)C[C@H](C)C[C@H](OC)[C@H]2O[C@@](O)(C(=O)C(=O)N3CCCC[C@H]3C(=O)O[C@H](/C(C)=C/[C@@H]3CC[C@@H](O)[C@H](OC)C3)[C@H](C)[C@@H](O)CC1=O)[C@H](C)C[C@@H]2OC [L-679,934]	–	–	–	–	–	–	–	–	–	–	–	–	–	–	–	–	–	–	99
